Data: patent publication US20080200454A1, “CARBON-LINKED TETRAHYDRO-PYRAZOLO-PYRIDINE MODULATORS OF CATHEPSIN S” (priority 2007, published 2008)

Biological target: Recombinant human cathepsin S (CatS) (Homo sapiens, UniProt P25774)
Assay: Recombinant human cathepsin S (CatS) inhibition assay, fluorogenic substrate Z-Valine-Valine-Arginine-AMC;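 note: Baculovirus-expressed CatS in pH 5.0 sodium acetate buffer with DTT and NaCl, fluorescence read each minute over 20 min, inhibition derived from rate slope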
Conditions: not given

Sequence of Recombinant human cathepsin S (CatS) (P25774 115-331): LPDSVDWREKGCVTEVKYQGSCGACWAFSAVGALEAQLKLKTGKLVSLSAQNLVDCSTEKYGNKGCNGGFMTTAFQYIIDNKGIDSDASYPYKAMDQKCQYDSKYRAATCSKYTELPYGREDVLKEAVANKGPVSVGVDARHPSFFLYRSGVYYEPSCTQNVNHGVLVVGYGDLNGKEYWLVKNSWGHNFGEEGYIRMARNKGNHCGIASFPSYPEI

IC50 [nM]	SMILES
7130	CCN(CC)CC#Cc1cc(-c2nn(C[C@@H](O)CN3CCC(C4CCN(C(=O)OC(C)(C)C)CC4)CC3)c3c2CN(S(C)(=O)=O)CC3)ccc1Cl [Example 236, 1,1-Dimethylethyl 1′-{(2S)-3-[3-{4-chloro-3-[3-(diethylamino)prop-1-yn-1-yl]phenyl}-5-(methylsulfonyl)-4,5,6,7-tetrahydro-1H-pyrazolo[4,3-c]pyridin-1-yl]-2-hydroxypropyl}-4,4′-bipiperidine-1-carboxylate]
80	CC(C)(C)OC(=O)NC1CCN(CC(O)Cn2nc(-c3ccc(Cl)c(C#Cc4ccc(Cl)cc4)c3)c3c2CCN(S(C)(=O)=O)C3)CC1 (centres unmarked) [Example 130, [1-(3-{3-[4-Chloro-3-(4-chloro-phenylethynyl)-phenyl]-5-methanesulfonyl-4,5,6,7-tetrahydro-pyrazolo[4,3-c]pyridin-1-yl}-2-hydroxy-propyl)-piperidin-4-yl]-carbamic acid tert-butyl ester]
3580	CS(=O)(=O)N1CCc2c(c(-c3ccc(Cl)c(CCCCN4CCOCC4)c3)nn2CCCN2CCC(N3CCCC3=O)CC2)C1 [Example 113, 1-[1-(3-{3-[4-Chloro-3-(4-morpholin-4-yl-butyl)-phenyl]-5-methanesulfonyl-4,5,6,7-tetrahydro-pyrazolo[4,3-c]pyridin-1-yl}-propyl)-piperidin-4-yl]-pyrrolidin-2-one]
60	CS(=O)(=O)N1CCc2c(c(-c3ccc(C(F)(F)F)c(C#Cc4ccc(Cl)cc4)c3)nn2CC(O)CN2CCC(C(N)=O)CC2)C1 (centres unmarked) [Example 119, 1-(3-{3-[3-(4-Chloro-phenylethynyl)-4-trifluoromethyl-phenyl]-5-methanesulfonyl-4,5,6,7-tetrahydro-pyrazolo[4,3-c]pyridin-1-yl}-2-hydroxy-propyl)-piperidine-4-carboxylic acid amide]
30	CN(C)c1ccc2c(n1)n(C1CCN(CC(O)Cn3nc(-c4ccc(C(F)(F)F)c(C#Cc5ccc(Cl)cc5)c4)c4c3CCN(S(C)(=O)=O)C4)CC1)c(=O)n2C (centres unmarked) [Example 120, 3-[1-(3-{3-[3-(4-Chloro-phenylethynyl)-4-trifluoromethyl-phenyl]-5-methanesulfonyl-4,5,6,7-tetrahydro-pyrazolo[4,3-c]pyridin-1-yl}-2-hydroxy-propyl)-piperidin-4-yl]-5-dimethylamino-1-methyl-1,3-dihydro-imidazo[4,5-b]pyridin-2-one]
50	NC(=O)C(=O)N1CCc2c(c(-c3ccc(Cl)c(C#Cc4ccc(CNCc5ccc(Cl)cc5)cc4)c3)nn2C[C@@H](O)CN2CCSCC2)C1 [Example 249, (S)-2-[3-(4-Chloro-3-{4-[(4-chloro-benzylamino)-methyl]-phenylethynyl}-phenyl)-1-(2-hydroxy-3-thiomorpholin-4-yl-propyl)-1,4,6,7-tetrahydro-pyrazolo[4,3-c]pyridin-5-yl]-2-oxo-acetamide]
2850	CS(=O)(=O)N1CCc2c(c(-c3ccc(Cl)c(/C=C/c4ccccc4)c3)nn2CCCN2CCOCC2)C1 [Example 68, 3-(4-Chloro-3-E-styryl-phenyl)-5-methanesulfonyl-1-(3-morpholin-4-yl-propyl)-4,5,6,7-tetrahydro-1H-pyrazolo[4,3-c]pyridine]
5650	CS(=O)(=O)N1CCc2c(c(-c3ccc(Cl)c(CCCN)c3)nn2CCCN2CCC(N3CCCC3=O)CC2)C1 [Example 308, 1-[1-(3-{3-[3-(3-Aminopropyl)-4-chlorophenyl]-5-(methylsulfonyl)-4,5,6,7-tetrahydro-1H-pyrazolo[4,3-c]pyridin-1-yl}propyl)piperidin-4-yl]pyrrolidin-2-one]

Same assay, conditions: CatS IC50

SMILES	IC50 [nM]
NC(=O)N1CCc2c(c(-c3ccc(Cl)c(C#Cc4ccc(CNCc5ccc(Cl)cc5)cc4)c3)nn2CCCN2C[C@H]3COC[C@H]3C2)C1 [Example 170, 3-[4-Chloro-3-[(4-{[(4-chlorobenzyl)amino]methyl]phenyl)ethynyl]phenyl}-1-{3-[(3aR,6aS)-tetrahydro-1H-furo[3,4-c]pyrrol-5(3H)-yl]propyl}-1,4,6,7-tetrahydro-5H-pyrazolo[4,3-c]pyridine-5-carboxamide]	50
CS(=O)(=O)N1CCc2c(c(-c3ccc(Cl)c(C#Cc4ccc(NCc5ccccc5)cc4)c3)nn2CCCN2CCOCC2)C1 [Example 321, 4-({2-Chloro-5-[5-(methylsulfonyl)-1-(3-morpholin-4-ylpropyl)-4,5,6,7-tetrahydro-1H-pyrazolo[4,3-c]pyridin-3-yl]phenyl}ethynyl)-N-(phenylmethyl)aniline]	4650
C[C@H]1COCCN1CCCn1nc(-c2ccc(Cl)c(C#Cc3ccc(Cl)c(CN(C)C)c3)c2)c2c1CCN(C(=O)C(N)=O)C2 [Example 616, 2-(3-[4-Chloro-3-({4-chloro-3-[(dimethylamino)methyl]phenyl}ethynyl)phenyl]-1-{3-[(3S)-3-methylmorpholin-4-yl]propyl}-1,4,6,7-tetrahydro-5H-pyrazolo[4,3-c]pyridin-5-yl)-2-oxoacetamide]	12
CS(=O)(=O)N1CCc2c(c(-c3ccc(Cl)c(C#Cc4ccc(CNCc5cccnc5)cc4)c3)nn2CCCN2CCOCC2)C1 [Example 404, 1-[4-({2-Chloro-5-[5-(methylsulfonyl)-1-(3-morpholin-4-ylpropyl)-4,5,6,7-tetrahydro-1H-pyrazolo[4,3-c]pyridin-3-yl]phenyl}ethynyl)phenyl]-N-(pyridin-3-ylmethyl)methanamine]	370
CS(=O)(=O)N1CCc2c(c(-c3ccc(Cl)c(C#Cc4cccc(CNCC(=O)O)c4)c3)nn2CCCN2CCOCC2)C1 [Example 189, N-{[3-({2-Chloro-5-[5-(methylsulfonyl)-1-(3-morpholin-4-ylpropyl)-4,5,6,7-tetrahydro-1H-pyrazolo[4,3-c]pyridin-3-yl]phenyl}ethynyl)phenyl]methyl}glycine]	140
C[C@H]1COCCN1CCCn1nc(-c2ccc(Cl)c(C#Cc3ccc(Cl)c(C(=O)N4CCCC4)c3)c2)c2c1CCN(C(=O)C(N)=O)C2 [Example 573, 2-[3-(4-Chloro-3-{[4-chloro-3-(pyrrolidin-1-ylcarbonyl)phenyl]ethynyl}phenyl)-1-{3-[(3S)-3-methylmorpholin-4-yl]propyl}-1,4,6,7-tetrahydro-5H-pyrazolo[4,3-c]pyridin-5-yl]-2-oxoacetamide]	190
CS(=O)(=O)N1CCc2c(c(-c3ccc(Cl)c(CCc4cccc(CNCC5CCOCC5)c4)c3)nn2CCCN2CCOCC2)C1 [Example 186, 1-[3-(2-{2-Chloro-5-[5-(methylsulfonyl)-1-(3-morpholin-4-ylpropyl)-4,5,6,7-tetrahydro-1H-pyrazolo[4,3-c]pyridin-3-yl]phenyl}ethyl)phenyl]-N-(tetrahydro-2H-pyran-4-ylmethyl)methanamine]	690
NC(=O)N1CCc2c(c(-c3ccc(Cl)c(C#Cc4ccc(C(=O)N5CC[C@@H](O)C5)cc4)c3)nn2CCCN2CCSCC2)C1 [Example 552, 3-{4-Chloro-3-[(4-{[(3R)-3-hydroxypyrrolidin-1-yl]carbonyl}phenyl)ethynyl]phenyl}-1-(3-thiomorpholin-4-ylpropyl)-1,4,6,7-tetrahydro-5H-pyrazolo[4,3-c]pyridine-5-carboxamide]	500
CC(C)Oc1ccc(CNCc2ccc(C#Cc3cc(-c4nn(CCCN5CCSCC5)c5c4CN(C(N)=O)CC5)ccc3Cl)cc2)cc1 [Example 174, 3-{4-Chloro-3-[(4-{[({4-[(1-methylethyl)oxy]phenyl}methyl)amino]methyl}phenyl)ethynyl]phenyl}-1-(3-thiomorpholin-4-ylpropyl)-1,4,6,7-tetrahydro-5H-pyrazolo[4,3-c]pyridine-5-carboxamide]	270
COc1ccc(CNCc2ccc(C#Cc3cc(-c4nn(CCCN5CCSCC5)c5c4CN(C(N)=O)CC5)ccc3Cl)cc2)cc1 [Example 538, 3-[4-Chloro-3-({4-[({[4-(methyloxy)phenyl]methyl}amino)methyl]phenyl}ethynyl)phenyl]-1-(3-thiomorpholin-4-ylpropyl)-1,4,6,7-tetrahydro-5H-pyrazolo[4,3-c]pyridine-5-carboxamide]	110
CN(Cc1ccc(Cl)cc1)Cc1ccc(C#Cc2cc(-c3nn(CCCN4CCN(c5ccccn5)CC4)c4c3CN(S(C)(=O)=O)CC4)ccc2Cl)cc1 [Example 502, 1-{4-[(2-Chloro-5-{5-(methylsulfonyl)-1-[3-(4-pyridin-2-ylpiperazin-1-yl)propyl]-4,5,6,7-tetrahydro-1H-pyrazolo[4,3-c]pyridin-3-yl}phenyl)ethynyl]phenyl}-N-[(4-chlorophenyl)methyl]-N-methylmethanamine]	110
CS(=O)(=O)N1CCc2c(c(-c3ccc(Cl)c(C#Cc4ccc(CNCc5ccc(Cl)cc5)c(Cl)c4)c3)nn2CCCN2CCOCC2)C1 [Example 546, 1-[2-Chloro-4-({2-chloro-5-[5-(methylsulfonyl)-1-(3-morpholin-4-ylpropyl)-4,5,6,7-tetrahydro-1H-pyrazolo[4,3-c]pyridin-3-yl]phenyl}ethynyl)phenyl]-N-[(4-chlorophenyl)methyl]methanamine]	300
CN(C)C(=O)[C@@H]1Cc2ccc(C#Cc3cc(-c4nn(CCCN5CCOCC5)c5c4CN(S(C)(=O)=O)CC5)ccc3Cl)cc2CN1 [Example 193, (3S)-7-({2-Chloro-5-[5-(methylsulfonyl)-1-(3-morpholin-4-ylpropyl)-4,5,6,7-tetrahydro-1H-pyrazolo[4,3-c]pyridin-3-yl]phenyl}ethynyl)-N,N-dimethyl-1,2,3,4-tetrahydroisoquinoline-3-carboxamide]	50
CS(=O)(=O)N1CCc2c(c(-c3ccc(Cl)c(C#Cc4cccc(Cl)c4)c3)nn2CCCN2CCOCC2)C1 [Example 25, 3-[4-Chloro-3-(3-chloro-phenylethynyl)-phenyl]-5-methanesulfonyl-1-(3-morpholin-4-yl-propyl)-4,5,6,7-tetrahydro-1H-pyrazolo[4,3-c]pyridine]	700

Same assay, conditions: CatS IC50, Table 2; average of results obtained

IC50 [nM]	SMILES
440	CS(=O)(=O)N1CCc2c(c(-c3ccc(Cl)c(C#Cc4ccc(F)cc4)c3)nn2CCCN2CCOCC2)C1 [Example 31, 3-[4-Chloro-3-(4-fluoro-phenylethynyl)-phenyl]-5-methanesulfonyl-1-(3-morpholin-4-yl-propyl)-4,5,6,7-tetrahydro-1H-pyrazolo[4,3-c]pyridine]
